Experimental data published in patent US9302999B2, “Substituted triazoles as herbicides” (E. I. DU PONT DE NEMOURS AND COMPANY, priority 2012, dated 2016).
Read-outs that look alike come from different tables or passages of the source.

How the values were obtained:
Assay type in all cases: in vivo
[1] = test system: velvetleaf (Abutilon theophrasti); assay: Test A pre-/postemergence: velvetleaf; settings: Abutilon theophrasti, 240 h; for pest or weed control at 125 g/ha: 125 g ai/ha; for pest or weed control at 500 g/ha: 500 g ai/ha
Method in brief: (§1)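 Injury is scored visually on a scale where 0 means no effect and 100 complete control, comparing treated with untreated plants after approximately ten greenhouse days. Both preemergence and postemergence applications are made at the same time.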

[2] = test system: kochia (Kochia scoparia); assay: Test C pre-/postemergence: kochia
Description: (§2) Seeds of plant species selected from blackgrass (Alopecurus myosuroides), bromegrass, downy (downy bromegrass, Bromus tectorum), foxtail, green (green foxtail, Setaria viridis), ryegrass, Italian (Italian ryegrass, Lolium multiflorum), winter wheat (Triticum aestivum), wild oat (Avena fatua), galium (catchweed bedstraw, Galium aparine), bermudagrass (Cynodon dactylon), surinam grass (Brachiaria decumbens), cocklebur (common cocklebur, Xanthium strumarium), corn (Zea mays), large crabgrass (Digitaria sanguinalis), woolly cupgrass (Eriochloa villosa), foxtail, giant (giant foxtail, Setaria faberii), goosegrass (Eleusine indica), johnsongrass (Sorghum halepense), kochia (Kochia scoparia), lambsquarters (Chenopodium album), morningglory (Ipomoea coccinea), nightshade (eastern black nightshade, Solanum ptycanthum), nutsedge, yellow (yellow nutsedge, Cyperus esculentus), pigweed (Amaranthus retroflexus), ragweed (common ragweed, Ambrosia elation), soybean (Glycine max), common (oilseed) sunflower (Helianthus annuus), Russian thistle (Salsola kali) and velvetleaf (Abutilon theophrasti) were planted into a blend of loam soil and sand and treated preemergence with test chemicals formulated in a non-phytotoxic solvent mixture which included a surfactant.
(§3) At the same time, plants selected from these crop and weed species and also barley (winter barley, Hordeum vulgare), canarygrass (Phalaris minor), chickweed (common chickweed, Stellaria media) windgrass (Apera spica-venti) and deadnettle (henbit deadnettle, Lamium amplexicaule) were planted in pots containing Redi-Earth® planting medium (Scotts Company, 14111 Scottslawn Road, Marysville, Ohio 43041) comprising spaghnum peat moss, vermiculite, wetting agent and starter nutrients and treated with postemergence applications of test chemicals formulated in the same manner. Plants ranged in height from 2 to 18 cm (1- to 4-leaf stage) for postemergence treatments.
(§4) Treated plants and controls were maintained in a greenhouse for 13 to 15 days, after which time all species were compared to controls and visually evaluated. Plant response ratings, summarized in Table C, are based on a scale of 0 to 100 where 0 is no effect and 100 is complete control. A dash (-) response means no test result.

[3] = test system: wild oat (Avena fatua); assay: Test C pre-/postemergence: wild oat
Method in brief: (§5)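 Preemergence on seeds in loam/sand, postemergence on 2–18 cm (1–4-leaf) plants in peat-based medium; compounds in non-phytotoxic solvent with surfactant. After 13–15 days in greenhouse, visual rating versus controls, 0 (no effect) to 100 (complete control).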

[4] = test system: large crabgrass (Digitaria sanguinalis); assay: Test C pre-/postemergence: large crabgrass
Method in brief: as §5

[5] = test system: morningglory (Ipomoea spp.); assay: Test A pre-/postemergence: morningglory; settings: Ipomoea, 240 h; for pest or weed control at 125 g/ha: 125 g ai/ha; for pest or weed control at 500 g/ha: 500 g ai/ha
Method in brief: as §1

[6] = test system: ryegrass, Italian (Italian ryegrass, Lolium multiflorum); assay: Test C pre-/postemergence: ryegrass, Italian
Description: as §2, §3, §4

[7] = test system: foxtail, giant (giant foxtail, Setaria faberii); assay: Test A pre-/postemergence: foxtail, giant; settings: Setaria faberi, 240 h; for pest or weed control at 125 g/ha: 125 g ai/ha; for pest or weed control at 500 g/ha: 500 g ai/ha
Method in brief: as §1

[8] = test system: barnyardgrass (Echinochloa crus-galli); assay: Test A pre-/postemergence: barnyardgrass; settings: Echinochloa crus-galli, 240 h; for pest or weed control at 125 g/ha: 125 g ai/ha; for pest or weed control at 500 g/ha: 500 g ai/ha
Method in brief: as §1

[9] = test system: lambsquarters (Chenopodium album); assay: Test C pre-/postemergence: lambsquarters
Method in brief: as §5

[10] = test system: wheat (Triticum aestivum); assay: Test A pre-/postemergence: wheat; settings: Triticum aestivum, 240 h; for plant injury at 125 g/ha: 125 g ai/ha; for plant injury at 500 g/ha: 500 g ai/ha
Method in brief: as §1

[11] = test system: pigweed (Amaranthus retroflexus); assay: Test C pre-/postemergence: pigweed
Method in brief: as §5

[12] = test system: blackgrass (Alopecurus myosuroides); assay: Test C pre-/postemergence: blackgrass
Description: as §2, §3, §4

[13] = Postemergence, 31 g ai/ha, scale 0 to 100 (0 no effect, 100 complete control)
[14] = Preemergence, 31 g ai/ha, scale of 0 to 100, 0 is no effect, 100 is complete control
[15] = Preemergence, 62 g ai/ha, scale of 0 to 100, 0 is no effect, 100 is complete control
[16] = Preemergence, 125 g ai/ha, scale 0 to 100, 0 no effect, 100 complete control
[17] = Preemergence, 250 g ai/ha, scale 0 to 100, 0 no effect, 100 complete control
[18] = Postemergence, 125 g ai/ha, scale 0 to 100, 0 no effect, 100 complete control
[19] = Postemergence, 250 g ai/ha, scale 0 to 100
[20] = Postemergence, 62 g ai/ha, scale 0 to 100 (0 no effect, 100 complete control)

Work on `Cc1nn(-c2ccc(C(F)(F)F)cc2)nc1Cc1ccnc(C(F)(F)F)c1` [Compound 47, 4-[[5-methyl-2-[4-(trifluoromethyl)phenyl]-2H-1,2,3-triazol-4-yl]methyl]-2-(trifluoromethyl)pyridine] yielded a pest or weed control at 125 g/ha ([1]; post-emergence, Postemergence, 0 to 100 scale, 0 is no effect, 100 is complete control, read-out: Velvetleaf plant response rating) of 100%, a pest or weed control at 500 g/ha ([1]; post-emergence, Postemergence, visual rating on 0 to 100 scale (0 no effect, 100 complete control), approximately ten days, read-out: Velvetleaf plant response rating) of 100% and a pest or weed control at 125 g/ha ([1]; pre-emergence, Preemergence, 0 to 100 scale (0 no effect, 100 complete control), read-out: Plant response rating, Velvetleaf) of 80%. The pest or weed control at 500 g/ha ([1]; pre-emergence, Preemergence, 0 to 100 scale, 0 is no effect, 100 is complete control, read-out: Plant response rating, Velvetleaf) was 100%, the “Plant response rating, Kochia” value [2, 13] was 65 and the “Plant response rating, Kochia” value [2, 14] was 85. The “Plant response rating, Kochia” value [2, 15] was 90, the “Plant response rating, Kochia” value [2, 16] was 98 and the “Plant response rating, Kochia” value [2, 17] was 98. For the same compound, the “Plant response rating, Oat, Wild” value [3, 13] was 35, the “Plant response rating, Oat, Wild” value [3, 18] was 85 and the “Plant response rating, Oat, Wild” value [3, 19] was 90. The “Plant response rating, Oat, Wild” value [3, 14] was 80, the “Plant response rating, Oat, Wild” value [3, 15] was 90 and the “Plant response rating, Oat, Wild” value [3, 16] was 90. For the same compound, the “Plant response rating, Oat, Wild” value [3, 17] was 100, the “Plant response rating, Crabgrass, Large” value [4, 13] was 5 and the “Plant response rating, Crabgrass, Large” value [4, 20] was 15. The “Plant response rating, Crabgrass, Large” value [4, 18] was 35, the “Plant response rating, Crabgrass, Large” value [4, 19] was 50 and the “Plant response rating, Crabgrass, Large” value [4, 14] was 45. The “Plant response rating, Crabgrass, Large” value [4, 15] was 98, the “Plant response rating, Crabgrass, Large” value [4, 16] was 100 and the “Plant response rating, Crabgrass, Large” value [4, 17] was 100. It also gave a pest or weed control at 125 g/ha ([5]; post-emergence, Postemergence, 0 to 100 scale, 0 is no effect, 100 is complete control, read-out: Morningglory plant response rating) of 90%, a pest or weed control at 500 g/ha ([5]; post-emergence, Postemergence, visual rating on 0 to 100 scale (0 no effect, 100 complete control), approximately ten days, read-out: Morningglory plant response rating) of 90% and a pest or weed control at 125 g/ha ([5]; pre-emergence, Preemergence, 0 to 100 scale (0 no effect, 100 complete control), read-out: Plant response rating, Morningglory) of 70%. For the same compound, the pest or weed control at 500 g/ha ([5]; pre-emergence, Preemergence, 0 to 100 scale, 0 is no effect, 100 is complete control, read-out: Plant response rating, Morningglory) was 80%, the “Plant response rating, Ryegrass, Italian” value [6, 13] was 35 and the “Plant response rating, Ryegrass, Italian” value [6, 20] was 65. For the same compound, the “Plant response rating, Ryegrass, Italian” value [6, 18] was 75, the “Plant response rating, Ryegrass, Italian” value [6, 19] was 85 and the “Plant response rating, Ryegrass, Italian” value [6, 14] was 35. For the same compound, the “Plant response rating, Ryegrass, Italian” value [6, 15] was 50, the “Plant response rating, Ryegrass, Italian” value [6, 16] was 90 and the “Plant response rating, Ryegrass, Italian” value [6, 17] was 98. For the same compound, the pest or weed control at 125 g/ha ([7]; post-emergence, Postemergence, 0 to 100 scale, 0 is no effect, 100 is complete control, read-out: Foxtail, Giant plant response rating) was 80%, the pest or weed control at 500 g/ha ([7]; post-emergence, Postemergence, visual rating on 0 to 100 scale (0 no effect, 100 complete control), approximately ten days, read-out: Foxtail, Giant plant response rating) was 90% and the pest or weed control at 125 g/ha ([7]; pre-emergence, Preemergence, 0 to 100 scale (0 no effect, 100 complete control), read-out: Plant response rating, Foxtail, Giant) was 100%. The pest or weed control at 500 g/ha ([7]; pre-emergence, Preemergence, 0 to 100 scale, 0 is no effect, 100 is complete control, read-out: Plant response rating, Foxtail, Giant) was 100%, the pest or weed control at 125 g/ha ([8]; post-emergence, Postemergence, 0 to 100 scale, 0 is no effect, 100 is complete control, read-out: Barnyardgrass plant response rating) was 90% and the pest or weed control at 500 g/ha ([8]; post-emergence, Postemergence, visual rating on 0 to 100 scale (0 no effect, 100 complete control), approximately ten days, read-out: Barnyardgrass plant response rating) was 90%. For the same compound, the pest or weed control at 125 g/ha ([8]; pre-emergence, Preemergence, 0 to 100 scale (0 no effect, 100 complete control), read-out: Plant response rating, Barnyardgrass) was 90%, the pest or weed control at 500 g/ha ([8]; pre-emergence, Preemergence, 0 to 100 scale, 0 is no effect, 100 is complete control, read-out: Plant response rating, Barnyardgrass) was 100% and the “Plant response rating, Lambsquarters” value [9, 13] was 100. For the same compound, the “Plant response rating, Lambsquarters” value [9, 14] was 100, the “Plant response rating, Lambsquarters” value [9, 15] was 100 and the “Plant response rating, Lambsquarters” value [9, 16] was 100. For the same compound, the “Plant response rating, Lambsquarters” value [9, 17] was 100, the plant injury at 125 g/ha ([10]; post-emergence, Postemergence, 0 to 100 scale, 0 is no effect, 100 is complete control, read-out: Wheat plant response rating) was 30% and the plant injury at 500 g/ha ([10]; post-emergence, Postemergence, visual rating on 0 to 100 scale (0 no effect, 100 complete control), approximately ten days, read-out: Wheat plant response rating) was 50%. For the same compound, the plant injury at 125 g/ha ([10]; pre-emergence, Preemergence, 0 to 100 scale (0 no effect, 100 complete control), read-out: Plant response rating, Wheat) was 30%, the plant injury at 500 g/ha ([10]; pre-emergence, Preemergence, 0 to 100 scale, 0 is no effect, 100 is complete control, read-out: Plant response rating, Wheat) was 40% and the “Plant response rating, Pigweed” value [11, 13] was 100. For the same compound, the “Plant response rating, Pigweed” value [11, 20] was 100, the “Plant response rating, Pigweed” value [11, 18] was 100 and the “Plant response rating, Pigweed” value [11, 19] was 100. For the same compound, the “Plant response rating, Pigweed” value [11, 14] was 100, the “Plant response rating, Pigweed” value [11, 15] was 100 and the “Plant response rating, Pigweed” value [11, 16] was 100. For the same compound, the “Plant response rating, Pigweed” value [11, 17] was 100, the “Plant response rating, Blackgrass” value [12, 13] was 40 and the “Plant response rating, Blackgrass” value [12, 20] was 45. The “Plant response rating, Blackgrass” value [12, 18] was 60, the “Plant response rating, Blackgrass” value [12, 19] was 90 and the “Plant response rating, Blackgrass” value [12, 14] was 90. The “Plant response rating, Blackgrass” value ([12]; Preemergence, 62 g ai/ha, scale 0 to 100, 0 no effect, 100 complete control) was 98, the “Plant response rating, Blackgrass” value [12, 16] was 100 and the “Plant response rating, Blackgrass” value [12, 17] was 100.
